Results taken from patent publication US5328902A, “7-(substituted)-9-[(substituted glycyl)amido]-6-demethyl-6-deoxytetracyclines” (American Cyanamid Co., priority 1992, dated 1994).
Converted amounts (≈) assume the structure as drawn. Like-named read-outs stand apart in the source and are kept apart here.

Key:
E. coli UBMS 88-1 Tet B = assay: microbe, parasite or virus in culture; format: cell-based
E. coli J3272 Tet sens. = assay: MIC, agar dilution; format: cell-based
E. coli PRP1 Tet A = assay: microbe, parasite or virus in culture; format: cell-based; settings: E. coli PRP1 Tet A
[1] = test system: E. coli MC 4100 TNIOC Tet B; assay: microbe, parasite or virus in culture; format: cell-based
E. coli J3272 Tet C = assay: microbe, parasite or virus in culture; format: cell-based
E. coli UBMS 89-1 Tet M = assay: microbe, parasite or virus in culture; format: cell-based
[2] = test system: E. coli UBMS 89-2 Tet sens.; assay: MIC, agar dilution; format: cell-based
E. coli J2175 = assay: MIC, agar dilution; format: cell-based
E. coli BAJ9003 IMP MUT = assay: microbe, parasite or virus in culture; format: cell-based
E. coli UBMS 90-5 = assay: MIC, agar dilution; format: cell-based
E. coli #311 (MP) = assay: MIC, agar dilution; format: cell-based
E. coli ATCC 25922 = assay: MIC, agar dilution; format: cell-based
E. coli J3272 Tet D = assay: microbe, parasite or virus in culture; format: cell-based
S. mariescens FPOR 8733 = assay: MIC, agar dilution; format: cell-based
[3] = test system: Ps. acruginosa ATCC 27853; assay: MIC, agar dilution; format: cell-based
S. aureus NEMC 8769 = assay: MIC, agar dilution; format: cell-based; settings: S. aureus NEMC 8769
S. aureus UBMS 88-4 = assay: MIC, agar dilution; format: cell-based
[4] = test system: S. aureus UBMS 88-5 Tet M; assay: microbe, parasite or virus in culture; format: cell-based
[5] = test system: S. aureus UBMS 88-7 Tet K; assay: microbe, parasite or virus in culture; format: cell-based; settings: S. aureus UBMS 88-7 Tet K
[6] = test system: S. aureus UBMS 90-1 Tet M; assay: microbe, parasite or virus in culture; format: cell-based
S. aureus UBMS 90-3 = assay: MIC, agar dilution; format: cell-based
[7] = test system: S. aureus UBMS 90-2 Tet M; assay: microbe, parasite or virus in culture; format: cell-based
S. aureus IVES 2943 = assay: MIC, agar dilution; format: cell-based
S. aureus ROSE (MP) = assay: MIC, agar dilution; format: cell-based
S. aureus SMITH (MP) = assay: MIC, agar dilution; format: cell-based; settings: S. aureus SMITH (MP)
S. aureus IVES 1 983 = assay: MIC, agar dilution; format: cell-based
S. aureus ATCC 29213 = assay: MIC, agar dilution; format: cell-based; settings: S. aureus ATCC 29213
[8] = test system: S. hemolyticus AVHAH 88-3; assay: MIC, agar dilution; format: cell-based; settings: S. hemolyticus AVHAH 88-3
E. faecalis ATCC 29212 = assay: MIC, agar dilution; format: cell-based
[9] = test system: Wild Type S30 (wild type ribosomes, E. coli strain MRE600, tetracycline sensitive); assay: E. coli in vitro protein translation system, wild type S30

Compound: CN(C)c1cc(NC(=O)C2CCCN2C(=O)C(F)(F)F)c(O)c2c1CC1CC3[C@H](N(C)C)C(O)=C(C(N)=O)C(=O)[C@@]3(O)C(O)=C1C2=O.Cl.Cl (stereo partly drawn) [A, [7S-(7alpha,10aalpha)]-N-[9-(Aminocarbonyl)4,7-bis(dimethylamino)-5,5a,6,6a,7,10,10a, 12-octahydro-l,8,10a,ll-tetrahydroxy-10,12-dioxo-2-naphthacenyl]-l-(trifluoroacetyl)-2-pyrrolidinecarboxamide dihydrochloride]
- MIC (E. coli UBMS 88-1 Tet B; E. coli UBMS 88-1 Tet B, 18 hours at 35° C.): 8 µg/mL
- MIC (E. coli J3272 Tet sens.): 8 µg/mL
- MIC (E. coli PRP1 Tet A): > 32 µg/mL
- MIC ([1]; E. coli MC 4100 TNIOC Tet B): 8 µg/mL
- MIC (E. coli J3272 Tet C; E. coli J3272 Tet C): 8 µg/mL
- MIC (E. coli UBMS 89-1 Tet M; E. coli UBMS 89-1 Tet M): 8 µg/mL
- MIC ([2]; E. coli UBMS 89-2 Tet sens.): 8 µg/mL
- MIC (E. coli J2175; E. coli J2175): 8 µg/mL
- MIC (E. coli BAJ9003 IMP MUT; E. coli BAJ9003 IMP MUT): 1 µg/mL
- MIC (E. coli UBMS 90-5): 4 µg/mL
- MIC (E. coli #311 (MP); E. coli #311 (MP)): 8 µg/mL
- MIC (E. coli ATCC 25922; E. coli ATCC 25922): 8 µg/mL
- MIC (E. coli J3272 Tet D; E. coli J3272 Tet D): 2 µg/mL
- MIC (S. mariescens FPOR 8733): > 32 µg/mL
- MIC ([3]; Ps. acruginosa ATCC 27853): > 32 µg/mL
- MIC (S. aureus NEMC 8769): 1 µg/mL
- MIC (S. aureus UBMS 88-4; S. aureus UBMS 88-4): 4 µg/mL
- MIC ([4]; S. aureus UBMS 88-5 Tet M): 4 µg/mL
- MIC [5]: 16 µg/mL
- MIC ([6]; S. aureus UBMS 90-1 Tet M): 8 µg/mL
- MIC (S. aureus UBMS 90-3; S. aureus UBMS 90-3): 1 µg/mL
- MIC ([7]; S. aureus UBMS 90-2 Tet M): 2 µg/mL
- MIC (S. aureus IVES 2943; S. aureus IVES 2943): 16 µg/mL
- MIC (S. aureus ROSE (MP); S. aureus ROSE (MP)): 32 µg/mL
- MIC (S. aureus SMITH (MP)): 2 µg/mL
- MIC (S. aureus IVES 1 983; S. aureus IVES 1 983): 16 µg/mL
- MIC (S. aureus ATCC 29213): 4 µg/mL
- MIC [8]: 8 µg/mL
- MIC (E. faecalis ATCC 29212; E. faecalis ATCC 29212): 2 µg/mL

Compound: CN(C)c1ccc(O)c2c1C[C@H]1C[C@H]3[C@H](N(C)C)C(O)=C(C(N)=O)C(=O)[C@@]3(O)C(O)=C1C2=O [O, Minocycline, reference compound]
- MIC (E. coli UBMS 88-1 Tet B; Escherichia coli, UBMS881TETB, 18 h): 16 µg/mL (≈ 35 µM)
- MIC (E. coli J3272 Tet sens.; Escherichia coli, 18 h, read-out: MIC): 0.5 µg/mL (≈ 1.09 µM)
- MIC ([1]; Escherichia coli, 18 h): 8 µg/mL (≈ 17.5 µM)
- MIC (E. coli J3272 Tet C; Escherichia coli, J3272TETC, 18 h): 2 µg/mL (≈ 4.37 µM)
- MIC (E. coli UBMS 89-1 Tet M; Escherichia coli, UBMS891TETM, 18 h): 8 µg/mL (≈ 17.5 µM)
- MIC ([2]; Escherichia coli, 18 h): 0.5 µg/mL (≈ 1.09 µM)
- MIC (E. coli J2175; Escherichia coli, J2175, 18 h): 0.5 µg/mL (≈ 1.09 µM)
- MIC (E. coli BAJ9003 IMP MUT; Escherichia coli, BAJ9003IMPMUT, 18 h): 0.03 µg/mL (≈ 0.0656 µM)
- MIC (E. coli UBMS 90-5; Escherichia coli, UBMS905, 18 h, read-out: MIC): 0.5 µg/mL (≈ 1.09 µM)
- MIC (E. coli #311 (MP); Escherichia coli, 18 h): 0.25 µg/mL (≈ 0.546 µM)
- MIC (E. coli ATCC 25922; Escherichia coli, ATCC25922, 18 h): 0.5 µg/mL (≈ 1.09 µM)
- MIC (E. coli J3272 Tet D; Escherichia coli, J3272TETD, 18 h): 8 µg/mL (≈ 17.5 µM)
- MIC (S. mariescens FPOR 8733; 18 h, read-out: MIC): 2 µg/mL (≈ 4.37 µM)
- MIC ([3]; 18 h): 8 µg/mL (≈ 17.5 µM)
- MIC (S. aureus NEMC 8769; Staphylococcus aureus, NEMC8769, 18 h, read-out: MIC): < 0.015 µg/mL
- MIC (S. aureus UBMS 88-4; Staphylococcus aureus, UBMS884, 18 h): 0.03 µg/mL (≈ 0.0656 µM)
- MIC ([4]; Staphylococcus aureus, UBMS885TETM, 18 h): 4 µg/mL (≈ 8.74 µM)
- MIC ([6]; Staphylococcus aureus, UBMS901TETM, 18 h): 4 µg/mL (≈ 8.74 µM)
- MIC (S. aureus UBMS 90-3; Staphylococcus aureus, UBMS903, 18 h): 0.03 µg/mL (≈ 0.0656 µM)
- MIC ([7]; Staphylococcus aureus, UBMS902TETM, 18 h): 2 µg/mL (≈ 4.37 µM)
- MIC (S. aureus IVES 2943; Staphylococcus aureus, IVES2943, 18 h): 2 µg/mL (≈ 4.37 µM)
- MIC (S. aureus ROSE (MP); Staphylococcus aureus, 18 h): 0.5 µg/mL (≈ 1.09 µM)
- MIC (S. aureus SMITH (MP); Staphylococcus aureus, 18 h, read-out: MIC): 0.03 µg/mL (≈ 0.0656 µM)
- MIC (S. aureus IVES 1 983; Staphylococcus aureus, IVES1983, 18 h): 2 µg/mL (≈ 4.37 µM)
- MIC (S. aureus ATCC 29213; Staphylococcus aureus, ATCC29213, 18 h, read-out: MIC): 0.03 µg/mL (≈ 0.0656 µM)
- MIC (E. faecalis ATCC 29212; Enterococcus faecalis, ATCC29212, 18 h): 1 µg/mL (≈ 2.19 µM)
- % Inhibition Wild Type S30 ([9]; Conc. 0.06 mg/ml): 78%
- % Inhibition Wild Type S30 ([9]; Conc. 1.0 mg/ml): 98%
- inhibition of protein synthesis occuring on wild type ribosomes ([9]; coupled transcription and translation system): effectively inhibit protein synthesis
